Data from patent publication EP4736861A1, “ORAL COMPOSITION CONTAINING INORGANIC POROUS BODY” (Tanabe Pharma Corporation, priority 2023, dated 2025).

assay: PBPK model: construction and simulation of plasma concentration and urinary excretion; details: PBPK parameter, mice
Excerpt: For the construction, in vivo data from the vehicle group of the previously described "In Vivo Study Using a Choline-Load Fasted Mouse Model" and in vivo data from the single-dose PK study were used.
The following steps were applied for the construction of the PBPK model. • * The liver-to-plasma partition coefficient, blood cell-to-plasma partition coefficient, and plasma protein unbound fraction for d9-TMA and d9-TMAO were cited from the report by Shimizu et al.^1), assuming no species difference. • * The liver volume and hepatic blood flow rate were cited from the report by Yamashita et al.^2). • * Using the data from the single intravenous dose PK study of d9-TMA and d9-TMAO, the PK parameters for d9-TMA and d9-TMAO were estimated. […] For d9-TMA, assuming that adsorption equilibrium is reached in the gastrointestinal tract, it was considered to follow the formula: inhibition ratio of d9-TMA absorption from gastrointestinal tract = theoretical acid amount of unadsorbed zeolite / (water volume in the colon × dissociation constant + theoretical acid amount of unadsorbed zeolite), and the dissociation constant of zeolite and d9-TMA was calculated. The water volume in the colon was cited from the value in SimCYP (V23) manufactured by Certara.

| conversion ratio from d9-choline to d9-TMA | Structure (SMILES) |
| --- | --- |
| 0.9324 | [2H]C([2H])([2H])[N+](CCO)(C([2H])([2H])[2H])C([2H])([2H])[2H].[Cl-] [d9-choline] |

assay: not given; details: acidic concomitant drugs; source not stated; cited from earlier work

| Structure (SMILES) | pKa |
| --- | --- |
| CC(=O)Nc1ccc(CC(=O)O)cc1 [Actarit] | 3.94 |
| Oc1ncnc2[nH]ncc12 [Allopurinol] | 9.50 |

same assay, conditions: basic concomitant drugs; source not stated; cited from earlier work

| Structure (SMILES) | pKa of conjugate acid |
| --- | --- |
| NC(=O)N1c2ccccc2C=Cc2ccccc21 [Carbamazepine] | 7 |
| COc1ccccc1OCCNCC(O)COc1cccc2[nH]c3ccccc3c12 (stereo not shown) [Carvedilol] | 7.8 |
| CCC[C@@H]1C[C@@H](C(=O)N[C@@H]([C@H]2O[C@H](SC)[C@H](O)[C@@H](O)[C@H]2O)[C@@H](C)O)N(C)C1 [Lincomycin] | 7.6 |
| CC12CC3CC(C)(C1)CC(N)(C3)C2 [Memantine] | 10.58 |
| Cc1ncc([N+](=O)[O-])n1CCO [Metronidazole] | 2.6 |
| Clc1ccc(COC(Cn2ccnc2)c2ccc(Cl)cc2Cl)c(Cl)c1 (stereo not shown) [Miconazole] | 5.65 |
| OCCN1C[C@H](O)[C@@H](O)[C@H](O)[C@H]1CO [Miglitol] | 5.9 |
| CN1CCN2c3ncccc3Cc3ccccc3C2C1 (stereo not shown) [Mirtazapine] | 3.71 |
| Cc1nccn1CC1CCc2c(c3ccccc3n2C)C1=O (stereo not shown) [Ondansetron] | 7.4 |
| CCOC(=O)C1=C[C@@H](OC(CC)CC)[C@H](NC(C)=O)[C@@H](N)C1 [Oseltamivir] | 7.75 |

assay: not given; details: PBPK parameter; from Shimizu et al.; cited from earlier work

| Structure (SMILES) | blood cell-to-plasma partition coefficient | liver-to-plasma partition coefficient | plasma protein unbound fraction |
| --- | --- | --- | --- |
| [2H]C([2H])([2H])[N+]([O-])(C([2H])([2H])[2H])C([2H])([2H])[2H] [d9-TMAO] | 0.845 | 0.675 | 0.714 |
| [2H]C([2H])([2H])N(C([2H])([2H])[2H])C([2H])([2H])[2H] [d9-TMA] | 0.719 | 0.752 | 0.9 |
